Converted amounts (≈) assume the structure as drawn. “And” between values parts separate entries of the source, which are not always exact repeats. Equal values may be shown once. Read-outs that look alike come from different tables or passages of the source.
Tests used:
[1] = tested on: Candida spp. (C. parapsilosis, C. albicans, C. glabrata, C. tropicalis); test: Broth microdilution MIC, yeast (Example 11); format: cell-based
Candida spp. [2] = test: Broth microdilution MIC, yeast (Example 13), group statement and QC; format: cell-based; details: C. parapsilosis ATCC 22019, comparators, single value
Candida krusei [3] = test: Broth microdilution MIC, yeast (Example 13); format: cell-based; details: C. krusei ATCC 6258 (QC, Table 110), comparators, single value
Aspergillus spp. [4] = test: Broth microdilution MIC/MEC, mold (Example 13); format: cell-based
E. coli ATCC 25922 = test: Broth microdilution MIC, QC organism (Example 13, Table 110); format: cell-based, Escherichia coli
Source text: (§1) MECs were only reported where observed.

S. aureus ATCC 29213 = test: as above; format: cell-based, Staphylococcus aureus
Source text: as §1

[5] = tested on: Candida spp. (C. parapsilosis, C. albicans, C. glabrata, C. tropicalis); details: C. parapsilosis MMX 2323 (ATCC 22019), cited from earlier work
Candida spp. [6] = details: C. parapsilosis ATCC 22019, CLSI established QC range, cited from earlier work
Candida krusei [7] = details: C. krusei ATCC 6258, CLSI established QC range, cited from earlier work
Aspergillus spp. [8] = details: cited from earlier work
[9] = tested on: Enterococcus spp. (E. faecalis, E. faecium); test: Broth microdilution MIC (Example 11); format: cell-based; details: Enterococcus faecium, VRE, E. faecium MMX 485; VRE, vanA, LevR, CipR, EryR; read-out: MIC
Escherichia coli = details: E. coli MMX 102 (ATCC 25922); cited from earlier work
Pseudomonas aeruginosa = details: P. aeruginosa MMX 103 (ATCC 27853); cited from earlier work
[10] = tested on: Staphylococcus aureus (MRSA); details: S. aureus MMX 101 (ATCC 29213); cited from earlier work
Clostridium difficile = details: C. difficile MMX 4381 (ATCC 700057), CC^I; cited from earlier work
P. aeruginosa = test: Checkerboard FIC assay, BisEDT with CF agents (Example 10); format: cell-based, Pseudomonas aeruginosa; details: for MICB: Meropenem MIC in combination with BisEDT
[11] = tested on: Burkholderia cepacia complex; test: as above; format: cell-based, Burkholderia spp.
[12] = tested on: beta-hemolytic streptococci (S. pyogenes, S. agalactiae); test: Broth microdilution MIC (Example 11); format: cell-based, Streptococcus pyogenes, Streptococcus agalactiae; details: read-out: MIC
[13] = tested on: S. pneumoniae (pneumococci); details: S. pneumoniae MMX 6837 (ATCC 49619); cited from earlier work
[14] = A. flavus ATCC 204304 (QC, Table 110)
[15] = A. fumigatus ATCC MYA-3626 (QC, Table 110)
[16] = P. aeruginosa 6322, Meropenem in combination with BisEDT, checkerboard rows C-G

C[C@@H]1[C@H](O)[C@@H](C)/C=C/C=C/C=C/C=C/C=C/C=C/C=C/[C@H](O[C@@H]2O[C@H](C)[C@@H](O)[C@H](N)[C@@H]2O)C[C@@H]2O[C@](O)(C[C@@H](O)C[C@@H](O)[C@H](O)CC[C@@H](O)C[C@@H](O)CC(=O)O[C@H]1C)C[C@H](O)[C@H]2C(=O)O [Amphotericin B]
MIC ([1]; C. albicans MMX 7039, Sensitive, 24 hr): 0.5, 0.5 μg/mL | MIC ([1]; C. albicans MMX 7039, Sensitive, 48 hr): 0.5, 0.5 μg/mL | MIC ([1]; C. albicans MMX 7055, Sensitive, 24 hr): 0.25 µg/mL (≈ 0.271 µM) | MIC ([1]; C. albicans MMX 7055, Sensitive, 48 hr): 0.5 µg/mL (≈ 0.541 µM) | MIC ([1]; C. glabrata MMX 7086, FLU^R, 24 hr): 0.5 µg/mL (≈ 0.541 µM) | MIC ([1]; C. glabrata MMX 7086, FLU^R, 48 hr): 1 µg/mL (≈ 1.08 µM) | MIC ([1]; C. glabrata MMX 7318, FLU^R, 24 hr): 0.5 µg/mL (≈ 0.541 µM) | MIC ([1]; C. glabrata MMX 7318, FLU^R, 48 hr): 1 µg/mL (≈ 1.08 µM) | MIC ([1]; C. parapsilosis MMX 2323 (ATCC 22019), QC, 24 hr): 0.5 µg/mL (≈ 0.541 µM) | MIC ([1]; C. parapsilosis MMX 2323 (ATCC 22019), QC, 48 hr): 1 µg/mL (≈ 1.08 µM) | MIC ([1]; C. parapsilosis MMX 7370, FLU^R, 24 hr): 0.5 µg/mL (≈ 0.541 µM) | MIC ([1]; C. parapsilosis MMX 7370, FLU^R, 48 hr): 1 µg/mL (≈ 1.08 µM) | MIC ([1]; C. parapsilosis MMX 7555, FLU^R, 24 hr): 0.5, 0.5 μg/mL | MIC ([1]; C. parapsilosis MMX 7555, FLU^R, 48 hr): 0.5, 0.5 μg/mL | MIC ([1]; C. tropicalis MMX 7247, FLU^R, 24 hr): 0.5 µg/mL (≈ 0.541 µM) | MIC ([1]; C. tropicalis MMX 7247, FLU^R, 48 hr): 1 µg/mL (≈ 1.08 µM) | MIC ([1]; C. tropicalis MMX 7248, FLU^R, 24 hr): 0.5 µg/mL (≈ 0.541 µM) | MIC ([1]; C. tropicalis MMX 7248, FLU^R, 48 hr): 1 µg/mL (≈ 1.08 µM) | MIC ([1]; C. tropicalis MMX 7360, FLU^R, 24 hr): 0.5, 0.5 μg/mL | MIC ([1]; C. tropicalis MMX 7360, FLU^R, 48 hr): 0.5, 0.5 μg/mL | MIC 24 hr (Candida spp. [2]; 24 hr): 0.5 µg/mL (≈ 0.541 µM) | MIC 48 hr (Candida spp. [2]; 48 hr): 0.5 µg/mL (≈ 0.541 µM) | MIC 24 hr (Candida krusei [3]; 24 hr): 0.5 µg/mL (≈ 0.541 µM) | MIC 48 hr (Candida krusei [3]; 48 hr): 0.5 µg/mL (≈ 0.541 µM) | MIC 24 hr (Aspergillus spp. [4]; [14]): 0.5 µg/mL (≈ 0.541 µM) | MIC 48 hr (Aspergillus spp. [4]; [14]): 1 µg/mL (≈ 1.08 µM) | MIC 24 hr (Aspergillus spp. [4]; [15]): 0.5 µg/mL (≈ 0.541 µM) | MIC 48 hr (Aspergillus spp. [4]; [15]): 1 µg/mL (≈ 1.08 µM) | MIC 24 hr (E. coli ATCC 25922): > 64 µg/mL | MIC 24 hr (S. aureus ATCC 29213): > 64 µg/mL | MIC, CLSI QC range ([5]; 24 hr): 0.25 to 2 µg/mL | MIC, CLSI QC range ([5]; 48 hr): 0.5 to 4 µg/mL | QC Range 24 hr (Candida spp. [6]; 24 hr): 0.25-2 | QC Range 48 hr (Candida spp. [6]; 48 hr): 0.5-4 | QC Range 24 hr (Candida krusei [7]; 24 hr): 0.5-2 | QC Range 48 hr (Candida krusei [7]; 48 hr): 1-4 | QC Range 48 hr (Aspergillus spp. [8]; A. flavus ATCC 204304, CLSI established QC range): 0.5-4 | QC Range 48 hr (Aspergillus spp. [8]; A. fumigatus ATCC MYA-3626, CLSI established QC range): 0.5-4

CC(C)(O/N=C(\C(=O)N[C@@H]1C(=O)N2C(C(=O)[O-])=C(C[n+]3ccccc3)CS[C@H]12)c1csc(N)n1)C(=O)O [Ceftazidime]
MIC [9]: > 32 µg/mL | CLSI QC range (MIC) (Escherichia coli): (0.06-0.5) μg/mL | CLSI QC range (MIC) (Pseudomonas aeruginosa): (1-4) | CLSI QC range (MIC) [10]: (4-16) μg/mL

CCc1c(Cl)c(O)c(Cl)c(O)c1C(=O)O[C@H]1[C@H](O)[C@H](OC)[C@H](OC/C2=C\C=C\C[C@H](O)/C(C)=C/[C@H](CC)[C@@H](O[C@@H]3OC(C)(C)[C@@H](OC(=O)C(C)C)[C@H](O)[C@@H]3O)/C(C)=C/C(C)=C/C[C@@H]([C@@H](C)O)OC2=O)O[C@@H]1C [Fidaxomicin]
MIC, CLSI QC range (Clostridium difficile): (0.06-0.25) pg/mL

C[C@@H](O)[C@H]1C(=O)N2C(C(=O)O)=C(S[C@@H]3CN[C@H](C(=O)N(C)C)C3)[C@H](C)[C@H]12 [Meropenem, reference compound]
FICB (P. aeruginosa; [16]): 1 | MICB (Drug B concentration in combination) (P. aeruginosa; [16]): 16 µg/mL | FICB (P. aeruginosa; P. aeruginosa 8798, Meropenem FIC in combination with BisEDT, per checkerboard row): 1 | MICB (P. aeruginosa; P. aeruginosa 8798, per checkerboard row): 32 µg/mL | FICB (P. aeruginosa; P. aeruginosa 9108, Meropenem FIC in combination with BisEDT, per checkerboard row): 1 | MICB (P. aeruginosa; P. aeruginosa 9108, per checkerboard row): 1 µg/mL | FICB ([11]; B. cenocepacia 548, FIC of Meropenem in combination with BisEDT): 1 | MICB ([11]; B. cenocepacia 548, MIC of Meropenem in combination with BisEDT): 4 µg/mL | FICB ([11]; B. cenocepacia 813, FIC of Meropenem in combination with BisEDT): 1 | FICB ([11]; B. cepacia 546, Meropenem FIC in combination with BisEDT, per checkerboard row): 1 and 2 | MICB ([11]; B. cepacia 546, Meropenem MIC in combination with BisEDT, per checkerboard row): 4 µg/mL and 8 µg/mL | FICB ([11]; B. cepacia 1793, Meropenem FIC in combination with BisEDT, per checkerboard row): 2 and 4 | MICB ([11]; B. cepacia 1793, Meropenem MIC in combination with BisEDT, per checkerboard row): 8 µg/mL and 16 µg/mL | MICB ([11]; B. multivorans 1795, MIC of Meropenem in combination with BisEDT): 4 µg/mL | MIC ([11]; B. multivorans 1795, Meropenem alone, panel with BisEDT, read-out: Drug B MIC): 4 µg/mL | MIC [9]: > 64 µg/mL | MIC ([12]; S. agalactiae MMX 3741, ERY^R CC^R): 0.03 µg/mL (≈ 0.0782 µM) | MIC ([12]; S. agalactiae MMX 3743, ERY^R CC^R): 0.06 µg/mL (≈ 0.156 µM) | MIC ([12]; S. agalactiae MMX 4077, ERY^R CC^R): 0.06 µg/mL (≈ 0.156 µM) | MIC ([12]; S. agalactiae MMX 4079, ERY^R CC^R Pen^R MEM^R): 8 µg/mL (≈ 20.9 µM) | MIC ([12]; S. agalactiae MMX 4086, ERY^R CC^R): 0.06 µg/mL (≈ 0.156 µM) | CLSI QC range (MIC) (Escherichia coli): (0.008-0.06) μg/mL | CLSI QC range (MIC) (Pseudomonas aeruginosa): (0.25-1) | MIC, CLSI QC range [13]: (0.06-0.25) μg/mL

Reference: patent US12186283B2, “Bismuth-thiol compositions and methods of use” (Microbion Corporation, priority 2018, dated 2025)
